Measured values published in ChEMBL document CHEMBL1201862, “PubChem BioAssay data set” (2004).
The source made the active and inactive calls.

How the values were obtained:
[1] = molecular target: T1, Probable nicotinate-nucleotide adenylyltransferase (Staphylococcus aureus (strain N315), UniProt P65502); format: functional, Staphylococcus aureus subsp. aureus N315;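 on IC50 Mean: confirmatory dose-response retesting of NadD inhibitor hits first found in an ultra-high-throughput screen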
[2] = viability of HCT116 lacking mutant beta-catenin – cell-based, human colon tumor, dose response (AID 1045); format: functional;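 further: HCT116 colon tumor cells with beta catenin knocked out; cells exposed to compound for 60 hours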
[3] = viability of PTEN-deleted HCT116 cells – cell-based, HCT116 PTEN knockout, dose response (AID 1047); format: functional;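 further: HCT116 colon tumor cells with PTEN knocked out; cells exposed to compound for 60 hours before readout; potency for loss of cell viability measured by luminescence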
[4] = Luminescence Cell-Based Dose Retest to Confirm Inhibitors of Cancer Stem Cells. [Related pubchem assays (depositor defined):AID2717, AID2721]; format: functional; details: Homo sapiens
[5] = molecular target: T1, Probable nicotinate-nucleotide adenylyltransferase; format: functional, Staphylococcus aureus subsp. aureus N315; details: read-out: IC50_Mean
[6] = molecular target: T2, Histone-lysine N-methyltransferase NSD2 (Homo sapiens, UniProt O96028); format: biochemical
T2 sequence (O96028 whole entry): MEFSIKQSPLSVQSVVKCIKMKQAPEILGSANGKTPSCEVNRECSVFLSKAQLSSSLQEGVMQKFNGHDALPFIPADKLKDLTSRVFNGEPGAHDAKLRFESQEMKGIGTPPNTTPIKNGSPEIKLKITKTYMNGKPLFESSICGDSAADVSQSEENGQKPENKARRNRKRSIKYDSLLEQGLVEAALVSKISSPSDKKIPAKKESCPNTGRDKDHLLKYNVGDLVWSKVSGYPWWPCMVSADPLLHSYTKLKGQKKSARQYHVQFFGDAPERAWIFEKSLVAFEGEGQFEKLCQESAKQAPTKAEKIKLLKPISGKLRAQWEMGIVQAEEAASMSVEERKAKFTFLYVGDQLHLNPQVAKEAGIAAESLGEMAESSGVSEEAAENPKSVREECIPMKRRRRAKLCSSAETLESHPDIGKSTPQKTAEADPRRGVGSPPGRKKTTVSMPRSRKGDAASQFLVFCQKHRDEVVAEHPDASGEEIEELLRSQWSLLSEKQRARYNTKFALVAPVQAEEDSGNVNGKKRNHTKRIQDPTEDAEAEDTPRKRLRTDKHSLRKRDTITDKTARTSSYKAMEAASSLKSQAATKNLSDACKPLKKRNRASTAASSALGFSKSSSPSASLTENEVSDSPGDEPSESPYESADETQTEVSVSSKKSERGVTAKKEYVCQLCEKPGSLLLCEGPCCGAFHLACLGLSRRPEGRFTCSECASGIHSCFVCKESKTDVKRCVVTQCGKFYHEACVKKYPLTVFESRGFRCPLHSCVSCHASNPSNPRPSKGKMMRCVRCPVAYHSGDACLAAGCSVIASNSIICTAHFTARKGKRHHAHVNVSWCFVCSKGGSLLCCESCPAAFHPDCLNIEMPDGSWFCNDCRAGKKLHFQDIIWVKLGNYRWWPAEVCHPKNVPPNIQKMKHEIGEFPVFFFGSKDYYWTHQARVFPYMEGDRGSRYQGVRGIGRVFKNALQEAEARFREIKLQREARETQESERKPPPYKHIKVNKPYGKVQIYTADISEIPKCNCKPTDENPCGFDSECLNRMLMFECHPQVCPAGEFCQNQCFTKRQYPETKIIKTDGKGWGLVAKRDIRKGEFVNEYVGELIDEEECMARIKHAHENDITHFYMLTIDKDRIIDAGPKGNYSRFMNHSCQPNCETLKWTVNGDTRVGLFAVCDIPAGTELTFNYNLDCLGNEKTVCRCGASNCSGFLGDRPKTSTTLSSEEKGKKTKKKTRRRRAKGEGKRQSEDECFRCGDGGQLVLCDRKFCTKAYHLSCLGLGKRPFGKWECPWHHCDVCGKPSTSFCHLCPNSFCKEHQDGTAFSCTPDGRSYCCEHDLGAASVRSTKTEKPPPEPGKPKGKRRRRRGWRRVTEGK

[7] = molecular target: T3, Replicative DNA helicase DnaB (Mycobacterium tuberculosis, UniProt P9WMR3); assay: DnaB intein splicing inhibitors, dose response, biochemical, cell-free fluorescence (AID 449749); format: functional
T3 sequence (P9WMR3 whole entry): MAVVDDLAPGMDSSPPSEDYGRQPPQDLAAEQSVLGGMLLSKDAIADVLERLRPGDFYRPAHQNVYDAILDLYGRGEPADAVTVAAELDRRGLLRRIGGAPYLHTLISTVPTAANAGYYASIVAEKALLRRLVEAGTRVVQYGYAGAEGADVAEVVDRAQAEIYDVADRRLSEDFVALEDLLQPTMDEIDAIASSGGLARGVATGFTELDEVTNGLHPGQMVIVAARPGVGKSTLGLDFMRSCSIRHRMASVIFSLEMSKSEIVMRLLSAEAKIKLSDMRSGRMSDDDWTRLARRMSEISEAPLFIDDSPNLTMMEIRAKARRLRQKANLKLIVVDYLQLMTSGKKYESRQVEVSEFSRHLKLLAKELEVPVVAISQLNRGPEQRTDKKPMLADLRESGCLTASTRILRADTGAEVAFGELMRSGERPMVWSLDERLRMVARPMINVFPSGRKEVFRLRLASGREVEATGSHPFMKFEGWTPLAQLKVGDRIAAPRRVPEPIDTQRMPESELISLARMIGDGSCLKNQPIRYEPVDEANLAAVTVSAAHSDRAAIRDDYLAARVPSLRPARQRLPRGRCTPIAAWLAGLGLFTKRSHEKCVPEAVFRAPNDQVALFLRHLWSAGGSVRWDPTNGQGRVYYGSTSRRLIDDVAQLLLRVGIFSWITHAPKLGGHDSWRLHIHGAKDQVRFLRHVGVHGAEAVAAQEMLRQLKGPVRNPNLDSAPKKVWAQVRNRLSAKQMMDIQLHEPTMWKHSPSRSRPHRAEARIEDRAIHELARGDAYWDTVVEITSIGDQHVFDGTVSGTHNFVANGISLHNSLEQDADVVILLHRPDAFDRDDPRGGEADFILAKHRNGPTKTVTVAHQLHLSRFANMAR

[8] = molecular target: T4, Protein RecA (Mycobacterium tuberculosis, UniProt P9WHJ3); assay: Fluorescence Cell-Free Homogeneous Dose Retest to Identify Inhibitors of RecA-Intein Splicing Activity. [Related pubchem assays (depositor defined):AID2097, AID2223, AID489010, AID492950]; format: functional
T4 sequence (P9WHJ3 whole entry): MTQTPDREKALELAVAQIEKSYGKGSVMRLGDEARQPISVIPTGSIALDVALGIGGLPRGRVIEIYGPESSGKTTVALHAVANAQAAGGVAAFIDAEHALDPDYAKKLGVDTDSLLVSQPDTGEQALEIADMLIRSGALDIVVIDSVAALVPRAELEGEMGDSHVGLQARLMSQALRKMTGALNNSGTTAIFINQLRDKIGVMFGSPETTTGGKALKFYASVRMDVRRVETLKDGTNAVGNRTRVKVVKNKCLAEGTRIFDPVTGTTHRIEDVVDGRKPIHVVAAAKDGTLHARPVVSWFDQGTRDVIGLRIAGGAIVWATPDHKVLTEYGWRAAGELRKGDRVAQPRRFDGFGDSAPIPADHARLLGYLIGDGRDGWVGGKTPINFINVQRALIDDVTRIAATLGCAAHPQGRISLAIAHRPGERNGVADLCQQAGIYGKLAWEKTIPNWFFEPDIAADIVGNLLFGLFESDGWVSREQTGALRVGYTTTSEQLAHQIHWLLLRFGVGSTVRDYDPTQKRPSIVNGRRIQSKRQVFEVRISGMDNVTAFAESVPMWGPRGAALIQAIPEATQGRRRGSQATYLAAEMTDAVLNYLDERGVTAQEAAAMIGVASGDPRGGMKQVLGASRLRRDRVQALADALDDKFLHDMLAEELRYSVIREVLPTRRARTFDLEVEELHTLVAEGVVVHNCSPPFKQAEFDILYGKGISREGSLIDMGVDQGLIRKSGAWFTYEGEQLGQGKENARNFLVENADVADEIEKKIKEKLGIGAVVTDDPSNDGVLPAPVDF

[9] = molecular target: G-protein coupled receptor 35 (Homo sapiens, UniProt Q9HC97); assay: inhibition of zaprinast-stimulated GPR35 beta-arrestin translocation – imaging, U2OS, beta-arrestin-GFP, zaprinast agonist, primary screen (AID 2058); format: functional;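 further: antagonist potency meaning inhibition of agonist-induced arrestin redistribution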
[10] = A549 cell cytotoxicity, dose response, cytotoxicity control, plate reader, cherry-pick, antagonist series (AID 743412); format: functional, cell-based
[11] = viability loss in HEK293 cells – cell-based, plate reader, cherry-picked samples, cytotoxicity control, dose response (AID 743446); format: functional
[12] = molecular target: T5, Protein skinhead-1 (Caenorhabditis elegans, UniProt P34707); format: functional
T5 sequence (P34707 whole entry): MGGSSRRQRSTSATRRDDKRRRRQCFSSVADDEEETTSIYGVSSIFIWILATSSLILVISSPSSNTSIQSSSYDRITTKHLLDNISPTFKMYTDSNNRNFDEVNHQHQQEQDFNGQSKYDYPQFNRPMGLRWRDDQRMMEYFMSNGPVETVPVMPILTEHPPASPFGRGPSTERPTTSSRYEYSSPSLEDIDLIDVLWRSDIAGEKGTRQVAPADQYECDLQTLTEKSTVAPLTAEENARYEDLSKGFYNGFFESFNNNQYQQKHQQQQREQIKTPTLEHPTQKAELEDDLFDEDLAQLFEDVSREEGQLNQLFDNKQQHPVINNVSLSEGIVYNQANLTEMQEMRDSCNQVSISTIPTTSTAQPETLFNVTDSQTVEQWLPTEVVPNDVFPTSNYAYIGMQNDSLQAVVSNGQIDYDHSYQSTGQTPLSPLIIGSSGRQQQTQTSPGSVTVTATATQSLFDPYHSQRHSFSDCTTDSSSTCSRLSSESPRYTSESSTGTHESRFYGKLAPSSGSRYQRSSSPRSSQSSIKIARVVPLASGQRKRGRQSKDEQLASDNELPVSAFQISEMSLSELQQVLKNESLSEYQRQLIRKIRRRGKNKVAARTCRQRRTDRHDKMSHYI

[13] = toxicity toward HepG2 liver cells – cell-based, plate reader, cherry-pick, antagonist series, cytotoxicity control, dose response (AID 743416); format: functional
[14] = blockade of melanocortin 4 receptor signaling – cell-based, plate reader, cherry pick, counter-screen for LGR2 antagonist project, dose response (AID 743444); format: functional;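 further: transfected HEK 293 cells stimulated with alpha-MSH peptide; potency of inhibitors of the alpha-MSH evoked signal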
[15] = blockers of bursicon-stimulated LGR2 cAMP reporter – cell-based, HEK293, CRE-luciferase reporter, cherry pick, set 2, dose response (AID 743343); format: functional;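 further: transfected cells were stimulated with diluted bursicon conditioned medium after compound addition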
[16] = molecular target: Paired box protein Pax-8 (Homo sapiens, UniProt Q06710); assay: PAX8 transcriptional activity inhibition in RMG-I – RMG-I cells, luciferase, cherry-pick, dose response (AID 687027); format: functional, cell-based;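 further: luciferase reporter driven by Pax8 target thyroperoxidase promoter measured by SteadyGlo luminescence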
[17] = OVCAR-3 cell viability loss – plate reader, dry powder samples, PAX8 inhibitor project, dose response (AID 743044); format: functional, cell-based
[18] = OVCAR8 cell viability loss – plate reader, dry powder samples, PAX8 project, dose response (AID 743197); format: functional, cell-based; details: OVCAR-8
[19] = intracellular Trypanosoma cruzi inhibitors in host cells – cell-based, plate reader, cherry-pick samples, set 3, dose response (AID 651818); format: functional;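 further: compounds incubated with infected cells for about four days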
[20] = general mammalian cell viability loss – inhibitor set, cherry-pick, set 2, cytotoxicity control for miR-122 modulator project, dose response (AID 720697); format: functional, cell-based

Paired box protein Pax-8, sequence (Q06710 whole entry): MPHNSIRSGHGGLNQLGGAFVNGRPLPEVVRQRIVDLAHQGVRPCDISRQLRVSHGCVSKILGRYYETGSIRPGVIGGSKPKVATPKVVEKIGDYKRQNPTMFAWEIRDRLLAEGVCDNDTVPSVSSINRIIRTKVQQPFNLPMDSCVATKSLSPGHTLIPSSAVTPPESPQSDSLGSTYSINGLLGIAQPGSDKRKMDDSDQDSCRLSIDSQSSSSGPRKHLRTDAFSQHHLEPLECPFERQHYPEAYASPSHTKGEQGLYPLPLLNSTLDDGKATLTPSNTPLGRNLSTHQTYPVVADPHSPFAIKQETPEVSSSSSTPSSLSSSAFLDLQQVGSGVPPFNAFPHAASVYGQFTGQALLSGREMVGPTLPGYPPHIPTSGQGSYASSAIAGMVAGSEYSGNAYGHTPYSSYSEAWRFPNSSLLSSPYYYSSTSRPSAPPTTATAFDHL
T1 sequence (P65502 whole entry): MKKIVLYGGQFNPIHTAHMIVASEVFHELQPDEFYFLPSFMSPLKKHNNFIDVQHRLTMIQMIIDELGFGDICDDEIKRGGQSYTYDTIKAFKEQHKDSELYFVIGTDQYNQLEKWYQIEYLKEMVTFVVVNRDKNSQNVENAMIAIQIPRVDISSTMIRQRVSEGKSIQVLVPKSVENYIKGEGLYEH
G-protein coupled receptor 35, sequence (Q9HC97 whole entry): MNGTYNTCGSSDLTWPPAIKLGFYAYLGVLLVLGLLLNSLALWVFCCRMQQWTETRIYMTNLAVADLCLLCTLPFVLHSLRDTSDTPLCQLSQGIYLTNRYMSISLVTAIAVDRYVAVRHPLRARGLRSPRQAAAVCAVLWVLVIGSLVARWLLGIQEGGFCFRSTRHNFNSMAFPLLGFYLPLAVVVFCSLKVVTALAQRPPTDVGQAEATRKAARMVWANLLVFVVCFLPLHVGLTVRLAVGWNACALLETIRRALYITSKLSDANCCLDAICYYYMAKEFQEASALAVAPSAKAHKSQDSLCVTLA

What does the source list for `NS(=O)(=O)c1ccc(NC(=O)COC(=O)c2c3c(nc4ccccc24)/C(=C\c2ccc4c(c2)OCO4)CCC3)cc1`?
IC50 [1]: 11.9 µM (active); EC50 [2]: 18.3 µM (active); EC50 [3]: 17.5 µM (active); AC50 [4]: 3.72 µM (active); IC50 [5]: 21.1 µM (active)

For `O=C(Nc1ccccn1)c1ccc2c(=O)n3c(nc2c1)CCCCC3`, which AC50 [6] is on record?
The AC50 was 7.7 µM (active).

Which AC50 [7] does the source give for `O=c1c(Cl)c(Cl)cnn1Cc1ccccc1Cl` here?
Its AC50 is 15.5 µM (active).

And the EC50 [8]?
The EC50 was 7.78 µM (active).

What about the IC50 [9] of the same molecule?
Its IC50 is 2.16 µM (active).

What does the source list for `CN(C)CC(O)c1ccc(C=Cc2ccc(Cl)cc2)cc1` (stereo not drawn)?
AC50 [10]: 8.82 µM (active); AC50 [11]: 14.3 µM (active); IC50 [12]: 58.1 µM (inactive); AC50 [13]: 8.24 µM (active); AC50 [14]: 12.7 µM (active); AC50 [15]: 14.6 µM (active)

With `Cc1cccc(C)c1-n1nnnc1C(CCc1ccccc1)N1CCC(n2c(O)nc3ccccc32)CC1` (stereo not drawn) as the molecule, how does the AC50 [10] read?
Its AC50 is 16.6 µM (active).

And the AC50 [11]?
Its AC50 is 6.12 µM (active).

And the AC50 [13]?
The AC50 was 2.71 µM (active).

What about the AC50 [14] of the same molecule?
The AC50 was 8.26 µM (active).

And the AC50 [15]?
The AC50 was 9.92 µM (active).

With `C[C@H]1CN([C@@H](C)CO)C(=O)Cc2cc(NC(=O)NC3CCCCC3)ccc2O[C@H]1CN(C)Cc1ccc(-c2ccccc2)cc1` as the molecule, how does the AC50 [16] read?
The AC50 was 5.8 µM (active).

What about the AC50 [17] of the same molecule?
Its AC50 is 54.3 µM (active).

What about the AC50 [18] of the same molecule?
The AC50 was > 70 µM (inactive).

What about the AC50 [19] of the same molecule?
Its AC50 is 2.67 µM (active).

For `C[C@H](CO)N1C[C@H](C)[C@@H](CN(C)Cc2ccc(Cl)c(Cl)c2)Oc2ccc(NC(=O)Nc3ccc(F)cc3)cc2CC1=O`, which AC50 [16] is on record?
Its AC50 is 13.2 µM (active).

What about the AC50 [18] of the same molecule?
The AC50 was 54.4 µM (active).

Which AC50 [20] does the source give for `C[C@@H]1CN([C@H](C)CO)S(=O)(=O)c2ccc(-c3ccc(C(=O)N(C)C)cc3)cc2O[C@@H]1CN(C)C(=O)C1CCC1` here?
The AC50 was 0.493 µM (active).

For `CN(C[C@H]1N[C@@H](CO)[C@@H]1c1ccc(C2=CCCC2)cc1)C(=O)c1ccccn1`, which AC50 [20] is on record?
The AC50 was 2.46 µM (active).
